Experimental data from patent US20060240404A1, “Methods of isolating genes encoding proteins of specific function and of screening for pharmaceutically active agents” (Yeda Research And Development Co. Ltd., priority 2000, published 2006).

Tested on: translocation of fibrillar adhesion in GFP-tensin transfected HFF cells
Assay: Correlation analysis of fibrillar adhesion dynamics in time-lapse movies of GFP-tensin transfected cells treated with acto-myosin inhibitors
Format: cell-based
Conditions: for duration till maximum respond after addition / translocation of fibrillar adhesion following addition: 2 mM Lat-A, 150 mM H-7 or 100 mM ML-7; for correlation between sequential frames following addition of inhibitor: Eq. 1, 2 mM Lat-A, 150 mM H-7 or 100 mM ML-7, before treatment <0.65
Method: HFF cells were analyzed by time-lapse fluorescence recording starting 24 hours after transfection with GFP-tensin as described (10). During the recording different inhibitors of acto-myosin contractility were added ([…]) at the time point indicated by the first arrow, and washed out at the time point indicated by the second arrow. In each digital movie, a constant square frame (I) of […] containing only fibrillar adhesions without focal contacts was acquired as a function of time. Correlation was calculated between pairs of subsequent time points (It and It+1) for the duration of the movie. Correlation between It and It+1 was calculated (according to Eq. 1, where N=It and M=It+1). The graphs present this correlation as a function of time (t); and
The basic idea of this novel approach is that correlation is a quantitative measure of image similarity. Correlation is defined as the normalized pixel-by-pixel multiplication of two normalized images M and N (Eq. 1), and it is higher when the similarity between the two images is higher. Thus, if, and only if, N and M are identical images the correlation gets its maximum value of 1. When N equals −M (inverted images) the correlation reaches its minimum value, −1, and when N and M are totally unrelated images the correlation approaches zero. The below correlation equation (Eq. 1) can be extended to evaluate the similarity of two images which, are displaced with respect to each other (Eq. 2). To illustrate how this can be applied to characterize dynamic processes consider 4 cases in which N and M are two images of the same field taken at two close time points: (i) a correlation which equals 1 indicates a lack of any change in the field (since N equals M); (ii) if all the objects in the field are translated one pixel along the x axis, such that Mx,y=Nx+1,y, the correlation defined above will be less then 1. Yet when the objects are bigger then one pixel they will overlap in the two images, and thus the value of the correlation between N and M will be still close to 1; (iii) if the objects are translated 100 pixels, such that Mx,y=Nx+100,y with no overlap between the objects in the two images, the correlation will be low. However there is a single translational vector ([a^max,b^max], Eq. 4), i.e. (1,0) for case (ii) and (100,0) for case (iii), that will bring the two images to perfectly overlap, Mx,y=Nx+a,y+b, and will raise the more general translated correlation (C, Eq. 2) back to its maximal value of unity; (iv) if the objects moved 100 pixels, but different ones moved to different directions, the correlation will be low for all possible translational vectors, since the two images never overlap.
Inhibitors of acto-myosin contractility, like latrunculin-A (Lat-A), H-7 and ML-7, block the translocation of fibrilar adhesion (Zamir et al., Nature Cell Biology, Vol. 2, 191-196, 2000). In order to follow the kinetics of this effect a correlation analysis according to Eq. 1 was applied on digital movies of GFP-tensin transfected cells before, during and after treatments with inhibitors. Before treatment, fibrilar adhesions were highly dynamic and thus the correlation between two sequential frames was low (<0.65, FIG. 2). Following the addition of Lat-A, H-7 or ML-7 the translocation of fibrillar adhesion was inhibited, leading to higher correlation between sequential frames (˜0.78, 0.81 and 0.92 for Lat-A, H-7 and ML-7, respectively). The duration till maximum respond to Lat-A was relatively short (˜8 minutes after addition), while the respond to H-7 and ML-7 were more gradual (˜50 minutes after H-7 addition and ˜80 minutes after ML-7 addition). After washing-out the drugs, the translocation of fibrillar adhesion recovered and the correlation dropped back to lower levels. The recovery from H-7 was relatively fast (<20 minutes) while recovery from Lat-A and ML-7 took relatively long time (>80 minutes).

| SMILES | duration till maximum respond after addition | translocation of fibrillar adhesion following addition | correlation between sequential frames following addition of inhibitor | recovery of fibrillar adhesion translocation after washing-out the drug (after wash-out) |
| --- | --- | --- | --- | --- |
| CC1CNCCN1S(=O)(=O)c1cccc2cnccc12 (stereo not shown) [H-7] | ~50 min | inhibited | ~0.81 | < 20 min |
| C/C1=C/C(=O)O[C@@H]2C[C@@H](CC[C@H](C)/C=C\C=C\CC1)O[C@@](O)([C@@H]1CSC(=O)N1)C2 [Lat-A, latrunculin-A] | ~8 min | inhibited | ~0.78 | – |
| O=S(=O)(c1cccc2c(I)cccc12)N1CCCNCC1 [ML-7] | ~80 min | inhibited | ~0.92 | – |
